From EP4624472A1, “DEGRADER INCLUDING NOVEL C-MET PROTEIN LIGAND AND PHARMACEUTICAL COMPOSITION INCLUDING SAME” (Innocure Therapeutics, Inc., priority 2022, dated 2024)
Where two headings read alike, the source gives them in different places.

Tests used:
SNU-638 = experiment: In vitro cell viability assay (cancer cell anti-proliferative activity), SNU-638; type: cell-based, human; settings: SNU-638 cells, treated 72 hours, absorbance at 450 nm, read-out: In vitro cell viability assay (IC50, nM) SNU-638
Procedure: (§1) The c-MET overexpressing human gastric cancer cell lines MKN45 and SNU638 were cultured in RPMI medium with 10% fetal bovine serum, penicillin (100 U/ml), and streptomycin ([…]), and the c-MET exon 14 skipping mutant human gastric cancer cell line Hs746T was cultured in DMEM media. The c-MET overexpressing human lung cancer cell line EBC-1 was cultured in MEM media with the addition of 10% fetal bovine serum, penicillin (100U/ml), and streptomycin ([…]). The normal cell line WI-38 derived from human lung tissue was cultured in EMEM medium with the addition of 10% fetal bovine serum, penicillin (100U/ml), and streptomycin ([…]).
(§2) The compound synthesized in accordance with the present invention was prepared with a raw material solution of 10 mM dissolved in DMSO (dimethyl sulfoxide), and was sequentially diluted and processed.
(§3) In order to evaluate the inhibitory activity on cell growth, cells were dispensed in a 96-well plate at a concentration of 5,000 cells/well and then treated with the compound of the present invention prepared at various concentrations for 72 hours. The absorbance measurement at 450 nm was calculated using the GraphicPad Prism 8.0 software. The IC50 value (concentration of the compound achieving 50% cytostatic inhibition) is the average value of the measured results. […]

EBC-1 = experiment: In vitro cell viability assay (cancer cell anti-proliferative activity), EBC-1; type: cell-based, human; settings: EBC-1 cells, treated 72 hours, absorbance at 450 nm, read-out: In vitro cell viability assay (IC50, nM) EBC-1
Procedure: as §1, §2, §3

Compound | IC50 (SNU-638) | IC50 (EBC-1) | IC50 (SNU-638; Homo sapiens) | IC50 (EBC-1; Homo sapiens)
Cn1cc(-c2cnc3c(nnn3C[C@@H]3CN(c4ncc(N5CCN(CC6CN(C(=O)OC(C)(C)C)C6)CC5)cn4)CCO3)n2)cn1 [Example B-1, tert-butyl(S)-3-((4-(2-(2-((5-(1-methyl-1H-pyrazole-4-yl)-1H-[1,2,3]triazolo[4,5-b]pyrazine-1-yl)methyl)morpholino)pyrimidine-5-il)ppiperazine-1-il)methyl)azetidine-1-carboxylate] | – | – | ≤ 100 nM | ≤ 100 nM
Cn1cc(-c2cnc3c(nnn3C[C@@H]3CN(c4ncc(N5CC(CN6CCNCC6)C5)cn4)CCO3)n2)cn1 [Example B-5, (S)-2-((5-(1-methyl-1H-pyrazole-4-yl)-1H-[1,2,3]triazolo[4,5-b]pyrazine-1-yl)methyl)-4-(5-(3-(piperazine-1-ylmethyl)azetidine-1-il)pyrimidine-2-yl)morpholine] | – | – | ≤ 100 nM | ≤ 100 nM
CC(C)(C)OC(=O)Nc1ccc(COCC2CN(c3cnc(N4CCO[C@H](Cn5nnc6nc(-c7cn[nH]c7)cnc65)C4)nc3)C2)cc1 [Example B-12, tert-butyl(S)-(4-(((1-(2-(2-((5-(1H-pyrazole-4-yl)-1H-[1,2,3]triazolo[4,5-b]pyrazine-1-yl)methyl)morpholino)pyrimidine-5-il)azetidine-3-il)methoxy)methyl)phenyl)carbamate] | ≤ 1000 nM | ≤ 1000 nM | – | –
Cn1cc(-c2cnc3c(nnn3C[C@@H]3CN(c4ncc(N5CC(COCc6ccc(NC(=O)OC(C)(C)C)nc6)C5)cn4)CCO3)n2)cn1 [Example B-13] | – | – | ≤ 1000 nM | ≤ 1000 nM
Cn1cc(-c2cnc3c(nnn3C[C@@H]3CN(c4ncc(N5CC(CN6CCN(C(=O)OCc7ccccc7)CC6)C5)cn4)CCO3)n2)cn1 [Example B-4] | – | – | ≤ 100 nM | ≤ 100 nM
Cn1cc(-c2cnc3c(nnn3C[C@@H]3CN(c4ncc(N5CCN(CC6CNC6)CC5)cn4)CCO3)n2)cn1 [Example B-2] | – | – | ≤ 100 nM | ≤ 100 nM
Cc1ccc(S(=O)(=O)OCC2CN(c3cnc(N4CCO[C@H](Cn5nnc6nc(-c7cnn(C)c7)cnc65)C4)nc3)C2)cc1 [Example B-8, (S)-(1-(2-(2-((5-(1-methyl-1H-pyrazole-4-yl)-1H-[1,2,3]triazolo[4,5-b]pyrazine-1-yl)methyl)morpholino)pyrimidine-5-il)azetidine-3-yl)methyl 4-methylbenzenesulfonate] | – | – | ≤ 100 nM | ≤ 100 nM
Cn1cc(-c2cnc3c(nnn3C[C@@H]3CN(c4ncc(N5CC(COCc6ccccc6)C5)cn4)CCO3)n2)cn1 [Example B-6, (S)-4-(5-(3-((benzyloxy)methyl)azetidine-1-il)pyrimidine-2-yl)-2-((5-(1-methyl-1H-pyrazole-4-yl)-1H-[1,2,3]triazolo[4,5-b]pyrazine-1-yl)methyl)morpholine] | – | – | ≤ 100 nM | ≤ 100 nM
Cn1cc(-c2cnc3c(nnn3C[C@@H]3CN(c4ncc(N5CC(CO)C5)cn4)CCO3)n2)cn1 [Example B-7, (S)-(1-(2-(2-((5-(1-methyl-1H-pyrazole-4-yl)-1H-[1,2,3]triazolo[4,5-b]pyrazine-1-yl)methyl)morpholino)pyrimidine-5-il)azetidine-3-yl)methanol] | – | – | ≤ 100 nM | ≤ 100 nM
CN1CCN(Cc2ccc(-c3cnc(N4CCO[C@H](Cn5nnc6nc(-c7cnn(C)c7)cnc65)C4)nc3)cc2)CC1 [ABN401, reference compound] | – | – | ≤ 100 nM | ≤ 100 nM
Cn1cc(-c2cnc3c(nnn3C[C@@H]3CN(c4ncc(N5CC(CN6CCN(C(=O)OC(C)(C)C)CC6)C5)cn4)CCO3)n2)cn1 [Example B-9] | – | – | ≤ 100 nM | ≤ 100 nM
CN1CC(CN2CCN(c3cnc(N4CCO[C@H](Cn5nnc6nc(-c7cnn(C)c7)cnc65)C4)nc3)CC2)C1 [Example B-3, (S)-2-((5-(1-methyl-1H-pyrazole-4-yl)-1H-[1,2,3]triazolo[4,5-b]pyrazine-1-yl)methyl)-4-(5-(4-((1-methylazetidine-3-yl)methyl)piperazine-1-il)pyrimidine-2-yl)morpholine] | – | – | ≤ 100 nM | ≤ 100 nM
CN1CCN(CC2CN(c3cnc(N4CCO[C@H](Cn5nnc6nc(-c7cnn(C)c7)cnc65)C4)nc3)C2)CC1 [Example B-10, (S)-2-((5-(1-methyl-1H-pyrazole-4-yl)-1H-[1,2,3]triazolo[4,5-b]pyrazin-1-yl)methyl)-4-(5-(3-((4-methylpiperazine-1-yl)methyl)azetidine-1-il)pyrimidine-2-yl)morpholine] | – | – | ≤ 100 nM | ≤ 100 nM
COc1ccc(COCC2CN(c3cnc(N4CCO[C@H](Cn5nnc6nc(-c7cnn(C)c7)cnc65)C4)nc3)C2)cc1 [Example B-11, (S)-4-(5-(3-(((4-methoxybenzyl)oxy)methyl)azetidine-1-il)pyrimidine-2-yl)-2-((5-(1-methyl-1H-pyrazole-4-yl)-1H-[1,2,3]triazolo[4,5-b]pyrazine-1-yl)methyl)morpholine] | – | – | ≤ 100 nM | ≤ 100 nM

Now from value to compound:

IC50 (SNU-638) | IC50 (EBC-1) | IC50 (SNU-638; Homo sapiens) | IC50 (EBC-1; Homo sapiens) | Compound
≤ 100 nM | ≤ 100 nM | – | – | 3-(6-oxo-1-(3-(5-(piperazine-1-yl)pyrimidine-2-yl)benzyl)-1,6-dihydropyridazine-3-yl)benzonitrile [Example C-6]
– | – | ≤ 100 nM | ≤ 100 nM | CC(C)(C)OC(=O)N1CCN(CCOc2cnc(-c3cccc(Cn4nc(-c5cccc(C#N)c5)ccc4=O)c3)nc2)CC1 [Example C-3]
– | – | ≤ 100 nM | ≤ 100 nM | N#Cc1cccc(-c2ccc(=O)n(Cc3cccc(-c4ncc(OC[C@@H]5CNCCO5)cn4)c3)n2)c1 [Example C-2, (S)-3-(1-(3-(5-(morpholine-2-ylmethoxy)pyrimidine-2-yl)benzyl)-6-oxo-1,6-dihydropyridazine-3-yl)benzonitrile]
– | – | ≤ 100 nM | ≤ 100 nM | CC(C)(C)OC(=O)N1CCO[C@@H](COc2cnc(-c3cccc(Cn4nc(-c5cccc(C#N)c5)ccc4=O)c3)nc2)C1 [Example C-1, tert-butyl(2R)-2-(((2-(3-((3-(3-cyanophenyl)-6-oxopyridazin-1(6H)-yl)methyl)phenyl)pyrimidine-5-yl)oxy)methyl)methyl-4-carboxylate]
– | – | ≤ 100 nM | ≤ 100 nM | N#Cc1cccc(-c2ccc(=O)n(Cc3cccc(-c4ncc(OCCN5CCNCC5)cn4)c3)n2)c1 [Example C-4, 3-(6-oxo-1-(3-(5-(2-(piperazine-1-yl)ethoxy)pyrimidine-2-yl)benzyl)-1,6-dihydropyridazine-3-yl)benzonitrile]
≤ 100 nM | ≤ 100 nM | – | – | CC(C)(C)OC(=O)N1CCN(c2cnc(-c3cccc(Cn4nc(-c5cccc(C#N)c5)ccc4=O)c3)nc2)CC1 [Example C-5]
